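Cells were grown in 96-well plates and exposed to each compound for 48 hours at five concentrations; endpoints were interpolated linearly between bracketing concentrations, or set to the highest concentration if not reached. GI50 marks 50% less growth. TGI marks complete inhibition of growth.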 *1 amine or outer side, *2 acyl side, *3 side chain or, on linkers, in order; H or OH if unused. Where a SMILES comes first, the peptide text is derived from it. Bridges are numbered along the chain shown (N, C = ends). [ ]: non-standard residue; d: D form. The star is where a group is joined. Phe(3-Me) = Cc1cccc(C[C@H](N)C(=O)O)c1; NH(4-Cl-2-F-phenyl) = Fc1cc(Cl)ccc1N*; Pro(4R-Me) = C[C@H]1CN[C@H](C(=O)O)C1; Propanoyl(3-NMe2) = CN(C)CCC(=O)*; Hyp = O=C(O)[C@@H]1C[C@@H](O)CN1; aThr = C[C@H](O)[C@H](N)C(=O)O; Pip = O=C(O)[C@@H]1CCCCN1; CO = O=C([*:1])[*:2]

In PubChem BioAssay (NCI) one finds GI50 and TGI data, which are given here for nine molecules.

Test in all cases: DTP human tumour cell line panel, 48 h
Experiment [1] deals with DU-145 prostate.
Experiment [2] has as its system NCI-H226 lung.
For experiment [3], the system named is 786-0 renal.
In experiment [4] the test system is SK-MEL-28 melanoma.
Experiment [5] has as its system A498 renal.
For experiment [6], the system named is OVCAR-8 ovarian.
The test system of experiment [7] is SK-MEL-2 melanoma.
Experiment [8] deals with MCF7 breast.
In experiment [9] the test system is TK-10 renal.
For experiment [10], the system named is MDA-MB-231 breast.

Broadly, the GI50 is the concentration giving 50% growth inhibition. As usually defined, the TGI is the concentration at which net growth stops. Read a high TGI as lower sensitivity of the cells. As for `Cc1nn(-c2ccc(Br)cc2)c(C)c1CC(=O)c1cc(O)ccc1O`, the GI50 in experiment [1] is 14.8 µM; in experiment [2] it was 7.69 µM; in experiment [3], 20.5 µM; in [4], 12.6 µM; in [5], 7.18 µM; in [6], 8.09 µM. Moreover, the GI50 was 23 µM in experiment [7], 6.27 µM in [8], 15.5 µM in experiment [9] and 5.35 µM in experiment [10]. The TGI in [1] is 44.6 µM; in [2], 19.3 µM; in [3] it was more than 50 µM; in [4], 47.5 µM; in experiment [5], 47.3 µM; in [6], 23.2 µM. Besides, the TGI in [7] was more than 50 µM; in experiment [8], 18.8 µM; in experiment [9], more than 50 µM; in experiment [10] it was 15 µM.
For `C=C(CN1CCN(c2cccc(F)c2)CC1)c1ccc(C(=O)Nc2ccccc2N)cc1`, the GI50 was 1.8 µM in experiment [1]; 4.17 µM in experiment [2]; 1.84 µM in [3]; 0.676 µM in experiment [4]; 2.12 µM in [5]; 1.99 µM in experiment [6]. Also, the GI50 in experiment [7] is 4.89 µM; in experiment [8] it was 0.691 µM; in experiment [9], 5.95 µM; in experiment [10], 1.01 µM. In addition, the TGI stood at 7.16 µM in experiment [1]; 35.2 µM in experiment [2]; 13 µM in experiment [3]; 38.6 µM in experiment [4]; 9.08 µM in experiment [5]; 47.9 µM in experiment [6]. The TGI in experiment [7] is more than 100 µM; in [8], more than 100 µM; in experiment [9] it was more than 100 µM; in experiment [10] it was 4.27 µM.
Turning to `COc1ccc(Cn2c(Br)c3c(c2-c2cc(OC)c(OC)c(OC)c2)CCc2sc(NC(C)=O)nc2-3)cc1`, the GI50 in experiment [1] is 4.44 µM; in [2], 39.3 µM; in experiment [3], 4.2 µM; in experiment [4], 5.09 µM; in [5] it was 2.5 µM; in experiment [6], 4.7 µM. Also, the GI50 in experiment [7] is 3.82 µM; in experiment [8], 3.32 µM; in [9], 6.17 µM; in experiment [10] it was 3.22 µM. Further, the concentration for total growth inhibition (TGI) in experiment [1] was more than 100 µM; in [2], more than 100 µM; in [3], more than 100 µM; in experiment [4], more than 100 µM; in experiment [5] it was 9.58 µM; in [6], more than 100 µM. Also, the concentration for total growth inhibition (TGI) was more than 100 µM in experiment [7], more than 100 µM in [8], 37.6 µM in experiment [9] and 43.6 µM in experiment [10].
`CNC1C(OC2C(OC3C(O)C(O)C(O)C(O)C3O)OC(C)C2(O)CO)OC(CO)C(O)C1O` (stereo not given) (tested in a mixture with another compound): the TGI in experiment [1], in experiment [2], in [3], in [4], in experiment [5] and in experiment [6] was more than 100 µM in each case. Also, the TGI in experiment [7], in experiment [8], in experiment [9] and in experiment [10] was more than 100 µM in each case.
On to `O=C1c2ccccc2C(=O)c2c1ccc1c2OCO1`, for which the TGI in experiment [1], in [2], in experiment [3], in experiment [4], in experiment [5] and in experiment [6] was more than 100 µM in each case. Besides, the TGI in [7], in [8], in experiment [9] and in [10] was more than 100 µM each time.
Turning to `Cc1cccc(C[C@H](NC(=O)Nc2ccc(Cl)cc2F)C(=O)N[C@@H]2C(=O)N3C[C@H](OC(=O)CCN(C)C)C[C@H]3C(=O)N3CCCC[C@H]3C(=O)N[C@@H](C)C(=O)N3C[C@H](C)C[C@H]3C(=O)O[C@H]2C)c1` ({NH(4-Cl-2-F-phenyl)-CO}-[Phe(3-Me)][aThr][Hyp](Propanoyl(3-NMe2))[Pip]A[Pro(4R-Me)]; ester 2-C), the GI50 is 0.514 µM in experiment [1]; 0.45 µM in [2]; 1.39 µM in [3]; 0.706 µM in experiment [4]; 0.43 µM in [5]; 0.431 µM in [6]. Moreover, the GI50 in [7] is 0.667 µM; in experiment [8], 0.394 µM; in experiment [9] it was 2.16 µM; in experiment [10] it was 0.417 µM. The TGI turned out to be 5.86 µM in experiment [1]; 2.19 µM in experiment [2]; 5.66 µM in experiment [3]; 2.1 µM in experiment [4]; 3.29 µM in [5]; 12.9 µM in experiment [6]. In addition, the TGI in experiment [7] amounted to 2.67 µM; in experiment [8] it was 1.83 µM; in experiment [9] it was 10.6 µM; in experiment [10], 1.66 µM.
With `COc1ccc(/C=C/C(=O)c2ccc(Nc3ccnc4cc(Cl)ccc34)cc2)cc1`, the GI50 in [1] is more than 100 µM; in experiment [2], more than 100 µM; in [3], more than 100 µM; in experiment [4], more than 100 µM; in [5] it was more than 52.3 µM; in experiment [6], more than 100 µM. Further, the GI50 in [7] is more than 100 µM; in [8], 2.85 µM; in experiment [9], more than 100 µM; in experiment [10] it was 31.1 µM. In addition, the TGI in [1], in experiment [2], in experiment [3], in experiment [4], in experiment [5] and in [6] was more than 100 µM each time. Also, the concentration for total growth inhibition (TGI) is more than 100 µM in experiment [7], more than 42.3 µM in [8], more than 100 µM in [9] and more than 100 µM in experiment [10].
Turning to `COc1ccc(CC2C3=C(CCCC3)CCN2C)cc1` (stereo not given), the concentration for total growth inhibition (TGI) in experiment [1], in experiment [2], in experiment [3], in experiment [4], in experiment [5] and in experiment [6] was more than 100 µM in each case. For the same molecule, the TGI in experiment [7], in [8], in [9] and in [10] was more than 100 µM in each case.
With `O=[N+]([O-])c1ccc(-c2cn(-c3ccc(Cl)cc3)cn2)cc1`, the TGI in experiment [1] was more than 100 µM; in [2], more than 100 µM; in [3] it was 36.5 µM; in experiment [4], more than 100 µM; in experiment [5], more than 100 µM; in experiment [6], more than 100 µM. For the same molecule, the TGI in experiment [7] was more than 100 µM; in experiment [8], more than 100 µM; in experiment [9], 67.5 µM; in experiment [10], more than 100 µM.
